According to ChEMBL document CHEMBL1201862, “PubChem BioAssay data set” (2004):
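Protocol summary: plate cells (96-well), add compound at 5 concentrations, incubate 48 h, interpolate endpoints linearly. The concentration for 50% growth inhibition is given as GI50.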 Calls of active or inactive are those of the source. No stated cut-off is given here; in the data, active = GI50 up to about 1.1 µM and inactive = higher.

What was measured:
Experiment in all cases: DTP human tumour cell line panel, 48 h
[1] = tested on: SF-268
[2] = tested on: SF-539
[3] = tested on: SW-620
[4] = tested on: MOLT-4
[5] = tested on: SK-MEL-28
[6] = tested on: HCT-15
[7] = tested on: U-251
[8] = tested on: ACHN
[9] = tested on: OVCAR-5
[10] = tested on: XF498
[11] = tested on: M19-MEL
[12] = tested on: RXF 631
[13] = tested on: NCI-H23
[14] = tested on: HCT-116
[15] = tested on: SNB-19
[16] = tested on: HL-60
[17] = tested on: KM-20L2
[18] = tested on: COLO 205
[19] = tested on: TK-10
[20] = tested on: RPMI-8226
[21] = tested on: NCI-H460
[22] = tested on: OVCAR-4
[23] = tested on: UO-31
[24] = tested on: SF-295
[25] = tested on: A498
[26] = tested on: EKVX
[27] = tested on: SK-MEL-2
[28] = tested on: NCI-H522
[29] = tested on: LOX IMVI
[30] = tested on: Malme-3M
[31] = tested on: UACC-257
[32] = tested on: DMS-114
[33] = tested on: SK-MEL-5
[34] = tested on: 786-0
[35] = tested on: M14
[36] = tested on: OVCAR-3
[37] = tested on: HT-29
[38] = tested on: CCRF-CEM
[39] = tested on: SNB-75
[40] = tested on: A549
[41] = tested on: SK-OV-3
[42] = tested on: K562
[43] = tested on: UACC-62
[44] = tested on: DMS-273
[45] = tested on: RXF 393
[46] = tested on: SR
[47] = tested on: LXFL 529
[48] = tested on: OVCAR-8
[49] = tested on: KM12
[50] = tested on: SN12C
[51] = tested on: CAKI-1
[52] = tested on: SNB-78

SMILES: O=c1c2ccccc2nc(-c2ccccc2Cl)n1NCC1(O)OCC(O)C(O)C1O (configuration not stated)
- GI50 [1]: > 100 µM (inactive)
- GI50 [2]: > 100 µM (inactive)
- GI50 [3]: > 100 µM (inactive)
- GI50 [4]: > 100 µM (inactive)
- GI50 [5]: > 100 µM (inactive)
- GI50 [6]: > 100 µM
- GI50 [7]: > 100 µM (inactive)
- GI50 [8]: > 100 µM (inactive)
- GI50 [9]: > 100 µM (inactive)
- GI50 [10]: > 100 µM (inactive)
- GI50 [11]: > 100 µM (inactive)
- GI50 [12]: > 100 µM (inactive)
- GI50 [13]: > 100 µM (inactive)
- GI50 [14]: > 100 µM (inactive)
- GI50 [15]: > 100 µM (inactive)
- GI50 [16]: > 100 µM (inactive)
- GI50 [17]: > 100 µM (inactive)
- GI50 [18]: > 100 µM (inactive)
- GI50 [19]: > 100 µM (inactive)
- GI50 [20]: > 100 µM (inactive)
- GI50 [21]: > 100 µM (inactive)
- GI50 [22]: > 100 µM (inactive)
- GI50 [23]: > 100 µM (inactive)
- GI50 [24]: > 100 µM (inactive)
- GI50 [25]: > 100 µM (inactive)
- GI50 [26]: > 100 µM (inactive)
- GI50 [27]: > 100 µM (inactive)
- GI50 [28]: > 100 µM (inactive)
- GI50 [29]: > 100 µM (inactive)
- GI50 [30]: > 100 µM (inactive)
- GI50 [31]: > 100 µM (inactive)
- GI50 [32]: > 100 µM (inactive)
- GI50 [33]: > 100 µM (inactive)
- GI50 [34]: > 100 µM (inactive)
- GI50 [35]: > 100 µM (inactive)
- GI50 [36]: > 100 µM (inactive)
- GI50 [37]: > 100 µM (inactive)
- GI50 [38]: > 100 µM (inactive)
- GI50 [39]: 62.2 µM (inactive)
- GI50 [40]: > 100 µM (inactive)
- GI50 [41]: > 100 µM (inactive)
- GI50 [42]: > 100 µM (inactive)
- GI50 [43]: > 100 µM (inactive)
- GI50 [44]: > 100 µM (inactive)
- GI50 [45]: > 100 µM (inactive)
- GI50 [46]: > 100 µM (inactive)
- GI50 [47]: > 100 µM (inactive)
- GI50 [48]: > 100 µM (inactive)
- GI50 [49]: > 100 µM (inactive)
- GI50 [50]: > 100 µM (inactive)
- GI50 [51]: > 100 µM (inactive)
- GI50 [52]: > 100 µM (inactive)
